# From paper PMC11242640 (International Journal of Molecular Sciences, 2024)
# Like-named read-outs stand apart in the source and are kept apart here.
# What was measured:
# [1] = target: eeAChE (Electrophorus electricus, UniProt O42275); test: eeAChE inhibition, modified Ellman's method; assay type: biochemical
# Experimental: (§1) Enzymes were prepared in 20 mM Tris buffer pH 7.5 and DTNB, ATChI, and BTChI in 50 mM Tris buffer pH 8.0. Cholinesterase activity was evaluated using a 96-well microplate reader (Bio Tek 800TSUV Absorbance Reader, Agilent, Santa Clara, CA, USA) at room temperature. The microplate well was filled with 180 μL of Tris buffer (50 mM, pH 8.0), 10 μL of tested solutions (final concentrations in a range of 20–1000 μM), 10 μL of an enzyme (final concentration 0.04 U/mL), 10 μL of DTNB (final concentration 0.3 mM), and […] of ATChI/BTChI (final concentration of 0.5 mM). […] Without the use of inhibitors and enzymes, non-enzymatic hydrolysis was evaluated as a blank for the control measurement. The non-enzymatic hydrolysis reaction with an added inhibitor was used as a blank for the samples. The same volume of buffer was substituted for the enzyme. All experiments were run in triplicate. The following formula was applied to calculate the inhibition percentage: Inhibition (%) = [(AC − AT)/AC] × 100, where AC is the activity of the enzyme without a test sample and AT is the activity of the enzyme with a test sample. […] The inhibitory activity of ethanol was subtracted from all the samples. The IC50 values were obtained by a nonlinear fit of compound concentration values versus the response.
# [2] = target: T1, eqBChE (Equus caballus, UniProt P81908); test: eqBChE inhibition, modified Ellman's method; assay type: biochemical; conditions: for inhibition of BChE: concentration not given
# T1 construct: eqBChE (from equine serum); purchased Sigma–Aldrich (St. Louis, MO, USA); host or cells: equine serum
# T1 sequence (P81908 whole entry): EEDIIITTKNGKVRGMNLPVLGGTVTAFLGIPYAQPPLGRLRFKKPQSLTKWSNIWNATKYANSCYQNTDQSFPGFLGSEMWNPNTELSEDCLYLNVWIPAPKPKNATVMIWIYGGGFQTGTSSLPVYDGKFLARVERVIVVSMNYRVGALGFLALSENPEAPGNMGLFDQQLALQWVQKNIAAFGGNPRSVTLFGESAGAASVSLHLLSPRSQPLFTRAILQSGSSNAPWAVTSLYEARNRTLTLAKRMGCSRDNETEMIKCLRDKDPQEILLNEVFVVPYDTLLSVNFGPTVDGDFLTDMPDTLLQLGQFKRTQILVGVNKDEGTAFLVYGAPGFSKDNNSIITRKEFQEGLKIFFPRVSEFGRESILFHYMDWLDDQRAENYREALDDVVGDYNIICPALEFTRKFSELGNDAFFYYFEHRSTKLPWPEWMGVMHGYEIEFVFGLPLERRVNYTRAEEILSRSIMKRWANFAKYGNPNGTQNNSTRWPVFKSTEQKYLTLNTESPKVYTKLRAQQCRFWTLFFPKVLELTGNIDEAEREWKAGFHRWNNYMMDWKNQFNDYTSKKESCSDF
# Experimental: as §1
# [3] = DPPH radical scavenging activity; conditions: for IC50: 30 min, 25 °C, dash = IC50 value not achieved; for DPPH Inhibition (%): at maximal concentration tested
# Excerpt: DPPH is the most commonly used method to determine the antioxidant activity of different potential antioxidants. DPPH is a stable organic radical capable of accepting an electron or a hydrogen radical and changing into a non-radical form, DPPH-H [50]. The percentage of radical quenching is used as a measure of the compound antioxidant capacity.
# DPPH radical scavenging activity. The stable radical 1,1-diphenyl-2-picrylhydrazyl (DPPH, Sigma–Aldrich, St. Louis, MO, USA) is the reagent used in this spectrophotometric test. The DPPH ethanolic solution (c = 8⋅10^−4 mol/L) was prepared daily and stored in a dark flask at 4 °C between the measurements. […] The reaction mixture was vortexed and incubated in the dark for 30 min at 25 °C. […] Antioxidant substances reduce the DPPH radical and decrease its absorbance at this wavelength. The DPPH inhibition, reported as a percentage, was obtained according to the equation: Inhibition (%) = [(AC(0) − AA(t))/AC(0)] × 100, where AC(0) is the absorbance of the control at t = 0 min and AA(t) is the absorbance of the antioxidant at t = 30 min. Each of the measurements was conducted three times. Inhibition percentages were expressed as mean values ± standard deviation. IC50 values were calculated using a nonlinear fit of compound concentration values versus the inhibition percentage.
# [4] = CUPRAC reducing antioxidant capacity assay; conditions: Trolox equivalent, pH 7.0
# Excerpt: The CUPRAC test is based on the reduction of Cu^2+ to Cu^+ due to the action of antioxidants. A reaction occurs at a pH 7.0 (close to physiological pH) in the presence of neocuproin. The reactive Ar-OH groups of polyphenols and other antioxidants are oxidized to the corresponding quinones, and Cu^2+-neocuproin is reduced to the colored complex Cu^+-neocuproin [51].
# CUPRAC-reducing-antioxidant-capacity assay. […] Ammonium acetate, neocuproine, copper(II) chloride, and standard Trolox were purchased from Sigma–Aldrich (St. Louis, MO, USA). The reaction mixture contained 1 mL of each of these solutions: NH4Ac buffer (1 M, pH 7.0), Cu(II) chloride (10 mM), and neocuproine (7.5 mM, dissolved in ethanol). To make a final volume of 4.1 mL, x mL of the testing sample (or standard Trolox) and (1,1-x) mL of H2O were added to an initial mixture. The tubes were vortexed and left for 30 min at room temperature. As a blank test, the same mixture was used only without the test sample. Absorbance was recorded at 450 nm (UV-1800 UV/Vis spectrophotometer, Shimadzu, Kyoto, Japan).
# [5] = read-out: eeAChE Inhibition (%)
# [6] = read-out: eqBChE Inhibition (%)
# Chain of eeAChE (O42275 24-633): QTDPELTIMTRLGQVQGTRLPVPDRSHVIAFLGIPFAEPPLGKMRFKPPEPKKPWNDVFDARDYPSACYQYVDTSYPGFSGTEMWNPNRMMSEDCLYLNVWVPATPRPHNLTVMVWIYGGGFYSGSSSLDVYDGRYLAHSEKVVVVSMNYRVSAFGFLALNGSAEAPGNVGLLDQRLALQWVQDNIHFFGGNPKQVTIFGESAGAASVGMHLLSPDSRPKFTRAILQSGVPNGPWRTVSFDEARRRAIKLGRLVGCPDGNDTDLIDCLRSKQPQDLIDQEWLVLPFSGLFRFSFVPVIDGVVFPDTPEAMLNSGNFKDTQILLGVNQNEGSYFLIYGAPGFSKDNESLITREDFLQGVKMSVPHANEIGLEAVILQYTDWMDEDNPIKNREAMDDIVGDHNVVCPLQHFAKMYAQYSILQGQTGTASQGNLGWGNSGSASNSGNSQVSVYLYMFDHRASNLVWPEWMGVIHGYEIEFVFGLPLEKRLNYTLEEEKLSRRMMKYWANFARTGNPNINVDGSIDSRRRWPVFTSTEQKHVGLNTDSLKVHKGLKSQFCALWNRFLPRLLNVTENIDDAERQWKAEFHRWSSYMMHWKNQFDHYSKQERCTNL
Compound,IC50 ([1]; dash = IC50 value not achieved),"inhibition at 500 µM [1, 5]",IC50 ([2]; dash = IC50 value not achieved),"inhibition at 500 µM [2, 6]",IC50 [3],CUPRAC [4],DPPH Inhibition (%) ([3]; 500 μM),other results
"Cc1cnc(/C=C/c2ccc(O)cc2)s1 [Compound 12, (E)-4-(2-(5-methylthiazol-2-yl)vinyl)phenol]",> 100 µM,9.1 ± 1.4%,189 µM,68.4 ± 1.3%,140 µM,–,–,DPPH Inhibition (%) ([3]; 524 μM): 74.1 ± 0.4 (524) %
"Cc1ccc(O)c(/C=C/c2cccs2)c1 [Compound 4, (E)-4-methyl-2-(2-(thiophen-2-yl)vinyl)phenol]",225 µM,–,36.5 µM,–,51.4 µM,0.852 mol TE/mol of Compound,–,"inhibition at 250 µM [1, 5]: 82.1 ± 1.1%; inhibition at 250 µM [2, 6]: 81.1 ± 2.2%; DPPH Inhibition (%) ([3]; 400 μM): 90.3 ± 0.6 (400) %"
"COc1ccc(/C=C/c2ncc(C)s2)c(O)c1 [Compound 11, (E)-5-methoxy-2-(2-(5-methylthiazol-2-yl)vinyl)phenol]",> 100 µM,29.3 ± 1.8%,> 250 µM,9.8 ± 2.7%,30.1 µM,–,–,inhibition of BChE [2]: < 50%; DPPH Inhibition (%) ([3]; 524 μM): 89.8 ± 0.0 (524) %
"Cc1ccc(/C=C/c2cc(Cl)ccc2O)s1 [Compound 6, (E)-4-chloro-2-(2-(5-methylthiophen-2-yl)vinyl)phenol]",–,–,–,–,> 250 µM,1.407 mol TE/mol of Compound,–,"IC50 [1]: 27.1 µM; inhibition at 80 µM [1, 5]: 82.4 ± 0.8%; IC50 [2]: 39.7 µM; inhibition at 100 µM [2, 6]: 84 ± 1.8%; DPPH Inhibition (%) ([3]; 400 μM): 42.9 ± 2.7 (400) %"
"Cc1cnc(/C=C\c2cc(F)ccc2O)s1 [Compound 9, (Z)-4-fluoro-2-(2-(5-methylthiazol-2-yl)vinyl)phenol]",> 100 µM,–,> 250 µM,–,428 µM,1.000 mol TE/mol of Compound,55.4 ± 0.7 (500) %,"inhibition at 100 µM [1, 5]: 17.6 ± 3.1%; inhibition at 250 µM [2, 6]: 10.5 ± 4.1%"
"Oc1ccc(Cl)cc1/C=C/c1cccs1 [Compound 2, (E)-4-chloro-2-(2-(thiophen-2-yl)vinyl)phenol]",82.3 µM,–,53 µM,–,265 µM,0.713 mol TE/mol of Compound,65.0 ± 2.4 (500) %,"inhibition at 250 µM [1, 5]: 83 ± 2.5%; inhibition at 200 µM [2, 6]: 80.4 ± 6.4%"
"Cc1cnc(/C=C/c2cccc(O)c2)s1 [Compound 14, (E)-3-(2-(5-methylthiazol-2-yl)vinyl)phenol]",> 100 µM,–,> 250 µM,–,> 250 µM,–,–,"inhibition at 250 µM [1, 5]: 10.7 ± 2.4%; inhibition of BChE [2]: < 50%; inhibition at 250 µM [2, 6]: 15.6 ± 3.6%; DPPH Inhibition (%) ([3]; 250 μM): 11.2 ± 2.7 (250) %"
"Cc1cnc(/C=C/c2ccccc2O)s1 [Compound 13, (E)-2-(2-(5-methylthiazol-2-yl)vinyl)phenol]",> 100 µM,17.1 ± 3.9%,30.7 µM,78.2 ± 3.8%,699 µM,–,–,DPPH Inhibition (%) ([3]; 1047 μM): 59.8 ± 2.3 (1047) %
"COc1ccc(O)c(/C=C/c2ccc(C)s2)c1 [Compound 7, (E)-4-methoxy-2-(2-(5-methylthiophen-2-yl)vinyl)phenol]",–,–,–,–,23.8 µM,2.350 mol TE/mol of Compound,–,"IC50 [1]: 62.9 µM; inhibition at 200 µM [1, 5]: 81.1 ± 1.1%; IC50 [2]: 42.5 µM; inhibition at 200 µM [2, 6]: 83.1 ± 0.8%; DPPH Inhibition (%) ([3]; 50 μM): 86.2 ± 2.3 (50) %"
"Oc1ccc(F)cc1/C=C/c1cccs1 [Compound 1, (E)-4-fluoro-2-(2-(thiophen-2-yl)vinyl)phenol]",178 µM,80.9 ± 1.9%,66 µM,–,159 µM,0.925 mol TE/mol of Compound,77.2 ± 0.5 (500) %,"inhibition at 400 µM [2, 6]: 83.5 ± 0.8%"
"COc1ccc(O)c(/C=C/c2cccs2)c1 [Compound 3, (E)-4-methoxy-2-(2-(thiophen-2-yl)vinyl)phenol]",405 µM,77.8 ± 5.2%,206 µM,68.5 ± 6.2%,36.2 µM,1.111 mol TE/mol of Compound,87.7 ± 0.8 (500) %,–
"Cc1cnc(/C=C\c2cc(Cl)ccc2O)s1 [Compound 10, (Z)-4-chloro-2-(2-(5-methylthiazol-2-yl)vinyl)phenol]",> 100 µM,34.2 ± 2.1%,> 250 µM,22.4 ± 9%,> 250 µM,0.630 mol TE/mol of Compound,24.0 ± 0.7 (500) %,–
"Cc1ccc(O)c(/C=C/c2ccc(C)s2)c1 [Compound 8, (E)-4-methyl-2-(2-(5-methylthiophen-2-yl)vinyl)phenol]",–,–,–,–,26.3 µM,1.148 mol TE/mol of Compound,–,"IC50 [1]: 92.4 µM; inhibition at 150 µM [1, 5]: 78.2 ± 7.7%; IC50 [2]: 24.8 µM; inhibition at 250 µM [2, 6]: 88.5 ± 5%; DPPH Inhibition (%) ([3]; 250 μM): 89.3 ± 1.2 (250) %"
"Cc1ccc(/C=C/c2cc(F)ccc2O)s1 [Compound 5, (E)-4-fluoro-2-(2-(5-methylthiophen-2-yl)vinyl)phenol]",155 µM,–,22.9 µM,–,130 µM,0.204 mol TE/mol of Compound,–,"inhibition at 250 µM [1, 5]: 84.6 ± 2.7%; inhibition at 100 µM [2, 6]: 75.3 ± 2.3%; DPPH Inhibition (%) ([3]; 400 μM): 83.0 ± 1.9 (400) %"
